Laboratory results published in patent US7713988B2, “4,5-diphenyl-pyrimidinylamino substituted carboxylic acids, method for the production and use thereof as medicaments” (Sanofi-Aventis, priority 2006, dated 2010).

target: T1, GPCR GPR40 (Homo sapiens, UniProt O14842); experiment: In vitro FLIPR assay with recombinant cells which express the GPCR GPR40 (intracellular Ca2+ change); format: cell-based; settings: 100 μM test substance; recombinant HEK293 cells expressing GPR40; relative to control (0%: no test substance; 100%: 10 μM reference agonist linoleic acid)
T1 construct: expressed in transfected cells; host or cells: HEK293
T1 sequence (O14842 whole entry): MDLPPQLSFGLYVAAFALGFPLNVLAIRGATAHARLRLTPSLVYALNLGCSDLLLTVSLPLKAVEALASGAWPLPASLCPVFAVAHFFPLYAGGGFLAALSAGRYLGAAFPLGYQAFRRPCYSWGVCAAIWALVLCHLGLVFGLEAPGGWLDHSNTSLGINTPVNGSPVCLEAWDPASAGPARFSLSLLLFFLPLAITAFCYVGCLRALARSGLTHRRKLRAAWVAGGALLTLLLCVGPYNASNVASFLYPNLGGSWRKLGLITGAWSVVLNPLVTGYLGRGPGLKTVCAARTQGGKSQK
Description: In vitro FLIPR assay with recombinant cells which express the GPCR GPR40 Function-testing assays were carried out by means of the FLIPR technique (“Fluorescence Imaging Plate Reader”, Molecular Devices Corp.). For this purpose, agonist-induced changes in the intracellular concentration of Ca^2+ in recombinant HEK293 cells which expressed the GPCR GPR40 were determined.
For the investigations, cells were seeded in 96-well microtiter plates (60 000 cells/well) and allowed to grow overnight. The medium was removed and the cells were incubated in buffer which contained the fluorescent dye fluo-4. After this loading with dye, the cells were washed, test substance was added, and changes in the intracellular Ca^2+ concentration were measured in the FLIPR instrument. Results have been presented as percentage change relative to the control (0%: no test substance added; 100%:10 μM reference agonist linoleic acid added).

Going from O=C(O)C(F)(F)F.O=C(O)CCCCCCNc1ncc(-c2ccccc2)c(-c2ccccc2)n1 [Example 4, 7-(4,5-Diphenylpyrimidin-2-ylamino)heptanoic Acid Trifluoroacetate] to O=C(O)C(F)(F)F.O=C(O)CCCCCCCNc1ncc(-c2ccccc2)c(-c2ccccc2)n1 [Example 3, 8-(4,5-Diphenylpyrimidin-2-ylamino)octanoic Acid Trifluoroacetate], the “% activation @ 100 μM” value rises from 94% to 104%.

First: O=C(O)C1CCC(CNc2ncc(-c3ccccc3)c(-c3ccccc3)n2)CC1 (stereo not shown) [Example 1, 4-[(4,5-Diphenylpyrimidin-2-ylamino)methyl]cyclohexanecarboxylic acid]
Second: O=C(O)C(F)(F)F.O=C(O)CCCCCNc1ncc(-c2ccccc2)c(-c2ccccc2)n1 [Example 5, 6-(4,5-Diphenylpyrimidin-2-ylamino)hexanoic acid trifluoroacetate]
The “% activation @ 100 μM” value of the first is higher: 79% for the first, 73% for the second.
